{"source": "patent US5843937A", "about": "(priority 1996, dated 1998)", "key": {"[1]": {"test_system": "double-stranded B-DNA", "details": "cited from earlier work"}, "[2]": {"details": "both in vitro and in experimental animals; cited from earlier work"}, "[3]": {"details": "prior compounds; experimental animals (CC-1065); cited from earlier work"}, "[4]": {"test_system": "B16 Melanoma", "test": "Cytotoxicity of Invented Compounds Against B16 Melanoma", "assay_type": "cell-based", "details": "Mus musculus"}, "[5]": {"test_system": "human liver cancer HepG2 cells", "test": "Cytotoxicity of Mab-YW-242 conjugates against liver cancer HepG2 cells (3H-thymidine incorporation)", "assay_type": "cell-based", "details": "1 h drug incubation, washed, overnight with 3H-thymidine, read-out: IC50 Values of the Mab-drug Conjugate", "protocol": "Using such potent molecules for monoclonal antibody-drug conjugate has advantages over using low potency agents. The tumor specific antibody will carry these molecules specifically to tumor cells, thus enhancing the therapeutic efficacy of these compounds. The monoclonal antibody-drug conjugates are still very toxic to cancer cells. The Mab-YW-242 conjugates were tested in vitro against human liver cancer HepG2 cells. IC50 values for cell proliferation were determined by incorporation of ^3 H-thymidine.\nThe conjugates were tested in vitro against human liver cancer HepG2 cells. IC50 values for cell proliferation were determined by incorporation of ^3 H-thymidine. 4×10^4 of trypsinized cells in 0.1 mL of DMEM medium containing 10% of heat-inactivated FCS were added to each well of 96-well microtiter plates and incubated for 4 h at 37° C. to allow attachment of the cells. Drugs in 10 μL of PBS were added and incubated for 1 h at 37° C. Medium was removed and the cells were washed with PBS (0.2 mL). Fresh medium (0.1 mL) and ^3 H-thymidine (10 μL) were added. The cells were incubated overnight at 37° C. The cells were treated with trypsin-EDTA for 15 min at 37° C. and then harvested using a micromate 196 harvester. Radioactivity was counted and IC50 values were determined."}, "[6]": {"test_system": "U937 Cells", "test": "Cytotoxicity of Invented Compounds Against U937 Cells", "assay_type": "cell-based", "details": "3H-thymidine last 24 h", "protocol": "Some of the new compounds were tested for their cytotoxicity against cancer cells. U937 cells were used to determine the IC50 values. The assay was set up in triplicate in 96 well flat bottom microtiter plates. All cells are seeded at 5×10^3 cells/well in RPMI-1640 plus 10% FCS. Drugs were added and the total volume was adjusted to 0.2 mL/well. Total incubation time was 48 h with the addition of ^3 H-thymidine for the last 24 h of incubation. The assay was harvested and counted with the packard Matrix 96 beta counter. The results were expressed as the percent growth inhibition calculated from the percent decrease in cpm of treated cells relative to the untreated controls."}, "[7]": {"details": "antitumor use; cited from earlier work"}, "[8]": {"details": "Homo sapiens, U-937, 48 h incubation"}}}
{"smiles": "COc1c(O)c2c(c3cc(C(=O)N4CCc5c4c(O)c(OC)c4[nH]c(C(=O)N6CC7CC78C6=CC(=O)c6[nH]cc(C)c68)cc54)[nH]c13)CCN2C(N)=O", "note": "(stereo not shown) [CC-1065]", "values": [{"measurement": "alkylation site", "setting": "[1]; by its CPI left-hand unit", "value": "alkylates the N3 position of the 3'-adenine"}, {"measurement": "sequence preference of DNA binding", "setting": "[1]; within the minor groove", "value": "5'-d(A/GNTTA)-3' and 5'-d(AAAAA)-3'"}, {"measurement": "antitumor and antimicrobial activity", "setting": "[2]", "value": "potent antitumor and antimicrobial activity both in vitro and in experimental animals"}, {"measurement": "delayed death", "setting": "[3]", "value": "causes delayed death in experimental animals"}]}
{"smiles": "COc1cccc2c1C(=O)c1c(O)c3c(c(O)c1C2=O)C[C@@](O)(C(=O)CO)C[C@@H]3O[C@H]1C[C@H](N)[C@H](O)[C@H](C)O1", "note": "[Doxorubicin, reference compound]", "values": [{"measurement": "IC50", "setting": "[4]", "value": 780, "unit": "nM"}, {"measurement": "IC50", "setting": "[5]", "value": 6000, "unit": "nM"}, {"measurement": "IC50", "setting": "[6]; [8]", "value": 100, "unit": "nM"}]}
{"smiles": "COC(=O)c1c(C)[nH]c2c(OC(=O)N3CCN(C)CC3)cc3c(c12)[C@H](CBr)CN3C(=O)c1cc2cc(OC)c(OC)c(OC)c2[nH]1", "note": "[KW 2189]", "values": [{"measurement": "delayed death", "setting": "[3]", "value": "do not cause delayed death"}]}
{"smiles": "Cc1c[nH]c2c1[C@@]13C[C@@H]1CN(C(=O)c1cc4cc(NC(=O)c5cc6ccccc6o5)ccc4[nH]1)C3=CC2=O", "note": "[U-73975]", "values": [{"measurement": "delayed death", "setting": "[3]", "value": "do not cause delayed death"}]}
{"smiles": "Cc1c[nH]c2c(O)cc3c(c12)[C@H](CCl)CN3C(=O)c1cc2cc(NC(=O)Nc3ccc4[nH]c(C(=O)N5C[C@@H](CCl)c6c5cc(O)c5[nH]cc(C)c65)cc4c3)ccc2[nH]1", "note": "[U-77779]", "values": [{"measurement": "delayed death", "setting": "[3]", "value": "do not cause delayed death"}]}
{"smiles": "CCN(CC)c1ccc2cc(C(=O)Nc3ccc4[nH]c(C(=O)N5C[C@@H](CCl)c6c5cc(OC(=O)Nc5ccccc5)c5[nH]cc(C)c65)cc4c3)oc2c1", "note": "[U-80244]", "values": [{"measurement": "delayed death", "setting": "[3]", "value": "do not cause delayed death"}]}
{"smiles": "CC(=O)Nc1cc(C(=O)N2CC(CCl)c3c2cc(O)c2ccccc32)n(C)c1", "note": "(stereo not shown) [YW-161, 3-[(4-Acetamino-1-methylpyrrole-2-yl)carbony:L]-1-(chloromethyl)-5-hydroxy-1,2-dihydro-3H-benz[e]indole]", "values": [{"measurement": "IC50", "setting": "[6]; 48 h incubation", "value": 5, "unit": "nM"}]}
{"smiles": "CC(=O)Nc1ccc2[nH]c(C(=O)N3CC(CCl)c4c3cc(O)c3ccccc43)cc2c1", "note": "(stereo not shown) [YW-198, 3-[[5-(acetamino)-1H-indol-2'-yl]carbonyl]-1-(chloromethyl)-5-hydroxy-1,2-dihydro-3H-benz[e]indole]", "values": [{"measurement": "IC50", "setting": "[6]; [8]", "value": 0.2, "unit": "nM"}]}
{"smiles": "CC(=O)Nc1ccc2[nH]c(C(=O)Nc3ccc4[nH]c(C(=O)N5CC(CCl)c6c5cc(O)c5ccccc65)cc4c3)cc2c1", "note": "(stereo not shown) [YW-200, 3-[[5-[[5-(Acetamino)-1H-indol-2-ylcarbonyl]amino]-1H-indol-2-yl]carbonyl]-1-(chloromethyl)-5-hydroxy-1,2-dihydro-3H-benz[e]indole]", "values": [{"measurement": "IC50", "setting": "[4]", "value": 7.2, "unit": "nM"}]}
{"smiles": "CC(=O)Nc1ccc2oc(C(=O)Nc3ccc4[nH]c(C(=O)N5CC(CCl)c6c5cc(O)c5ccccc65)cc4c3)cc2c1", "note": "(stereo not shown) [YW-201, 3-[[5-[[5-(Acetamino)-1H-benzofuran-2-ylcarbonyl]amino]-1H-indol-2-yl]carbonyl]-1-(chloromethyl)-5-hydroxy-1,2-dihydro-3H-benz[e]indole]", "values": [{"measurement": "IC50", "setting": "[6]; [8]", "value": 0.07, "unit": "nM"}]}
{"smiles": "CC(=O)Nc1ccc2[nH]c(C=CC(=O)N3CC(CCl)c4c3cc(O)c3ccccc43)cc2c1", "note": "(stereo not shown) [YW-202, 3-[[5-(acetamino)-1H-indol-2-yl]acrylyl]-1-(chloromethyl)-5-hydroxy-1,2-dihydro-3H-benz[e]indole]", "values": [{"measurement": "IC50", "setting": "[6]; [8]", "value": 0.2, "unit": "nM"}]}
{"smiles": "CC(=O)Nc1ccc2oc(C(=O)Nc3ccc4[nH]c(C(=O)N5CC6CC67C5=CC(=O)c5ccccc57)cc4c3)cc2c1", "note": "(stereo not shown) [YW-213, N^2-[[5-[[[5-(Acetamino)-1H-benzofuran-2-yl]carbonyl]amino]-1H-indol-2-yl]carbonyl]1,2,9,9a-tetrahydrocyclopropa[c]-benz[e]indol-4-one]", "values": [{"measurement": "IC50", "setting": "[6]; [8]", "value": 0.2, "unit": "nM"}]}
{"smiles": "O=C(C=Cc1cc2ccccc2o1)Nc1ccc2[nH]c(C(=O)N3CC(CCl)c4c3cc(O)c3ccccc43)cc2c1", "note": "(stereo not shown) [YW-215, 3-[[5-[(1H-Benzofuran-2-ylacrylyl)amino]-1H-indol-2-yl]carbony 1]-1-(chloromethyl)-5-hydroxy-1,2-dihydro-3H-benz[e]indole]", "values": [{"measurement": "IC50", "setting": "[6]; 48 h incubation", "value": 0.09, "unit": "nM"}]}
{"smiles": "CCCC(=O)Nc1cc(C=CC(=O)N2CC(CCl)c3c2cc(O)c2ccccc32)n(C)c1", "note": "(stereo not shown) [YW-222, 3-(4-Butyramido-1-methyl-2-pyrroleacryloylcarbonyl)-1-(chloromethyl)-5-hydroxy-1,2-dihydro-3H-benz[e]indole]", "values": [{"measurement": "IC50", "setting": "[6]; [8]", "value": 0.5, "unit": "nM"}]}
{"smiles": "O=C(CCCO)Nc1ccc2[nH]c(C(=O)N3CC(CCl)c4c3cc(O)c3ccccc43)cc2c1", "note": "(stereo not shown) [YW-231, 3-[[5-[(4-Hydroxy)butyramino]-1H-indol-2'-yl]carbonyl]-1-(chloromethyl)-5-hydroxy-1,2-dihydro-3H-benz[e]indole]", "values": [{"measurement": "IC50", "setting": "[4]", "value": 4, "unit": "nM"}, {"measurement": "IC50", "setting": "[6]; [8]", "value": 0.6, "unit": "nM"}]}
{"smiles": "O=C(CCCC[C@@H]1SC[C@@H]2NC(=O)N[C@@H]21)Nc1ccc2[nH]c(C(=O)N3CC(CCl)c4c3cc(O)c3ccccc43)cc2c1", "note": "(stereo partly shown) [YW-235, 3-[[5-(Biotin-amino)-1H-indol-2'-yl]carbonyl]-1-(chloromethyl)-5-hydroxy-1,2-dihydro-3H-benz[e]indole]", "values": [{"measurement": "IC50", "setting": "[6]; [8]", "value": 0.7, "unit": "nM"}]}
{"smiles": "Nc1ccc2[nH]c(C(=O)N3CC(CCl)c4c3cc(O)c3ccccc43)cc2c1", "note": "(stereo not shown) [YW-242, 3-[(5-Amino-1H-indol-2'-yl)carbonyl]-1-(chloromethyl)-5-hydroxy-1,2-dihydro-3H-benz[e]indole]", "values": [{"measurement": "IC50", "setting": "[4]", "value": 11, "unit": "nM"}, {"measurement": "IC50", "setting": "[5]", "value": 200, "unit": "nM"}, {"measurement": "IC50", "setting": "[6]; [8]", "value": 0.09, "unit": "nM"}]}
{"smiles": "COC(=O)[C@H]1O[C@@H](OCCCC(=O)Nc2ccc3[nH]c(C(=O)N4CC(CCl)c5c4cc(O)c4ccccc54)cc3c2)[C@H](OC(C)=O)[C@@H](OC(C)=O)[C@@H]1OC(C)=O", "note": "(stereo partly drawn) [YW-247, 3-[[5-[4-(Methyl 2,3,4-tri-O-acetyl-1-deoxy-b-D-glucuronate)butyramino]-1H-indol-2'-yl]carbonyl]-1-(chloromethyl)-5-hydroxy-1,2-dihydro-3H-benz[e]indole]", "values": [{"measurement": "IC50", "setting": "[6]; [8]", "value": 1.4, "unit": "nM"}]}
{"smiles": "COC(=O)[C@H]1O[C@@H](OCCCC(=O)Nc2ccc3[nH]c(C(=O)Nc4ccc5[nH]c(C(=O)N6CC(CCl)c7c6cc(O)c6ccccc76)cc5c4)cc3c2)[C@H](OC(C)=O)[C@@H](OC(C)=O)[C@@H]1OC(C)=O", "note": "(stereo partly drawn) [YW-249, 3-[[5-[[5-[4-(Methyl 2,3,4-tri-O-acetyl-1-deoxy-b-D-glucuronate)butyramino]-1H-indol-2-ylcarbonyl]amino]-1H-indol-2-yl]carbony 1]-1-(chloromethyl)-5-hydroxy-1,2-dihydro-3H-benz[e]indole]", "values": [{"measurement": "IC50", "setting": "[6]; [8]", "value": 0.55, "unit": "nM"}]}
{"smiles": "O=C(CCCO)Nc1ccc2[nH]c(C(=O)Nc3ccc4[nH]c(C(=O)N5CC(CCl)c6c5cc(O)c5ccccc65)cc4c3)cc2c1", "note": "(stereo not shown) [YW-254, 3-[[5-[[5-[4-(Hydroxy)butyramino]-1H-indol-2-ylcarbonyl]amino]-1H-indol-2-yl]carbonyl]-1-(chloromethyl)-5-hydroxy-1,2-dihydro-3H-benz[e]indole]", "values": [{"measurement": "IC50", "setting": "[6]; [8]", "value": 0.1, "unit": "nM"}]}
{"smiles": "COC(=O)[C@H]1O[C@@H](OCCCC(=O)Nc2ccc3[nH]c(C(=O)Nc4ccc5[nH]c(C(=O)Nc6ccc7[nH]c(C(=O)N8CC(CCl)c9c8cc(O)c8ccccc98)cc7c6)cc5c4)cc3c2)[C@H](OC(C)=O)[C@@H](OC(C)=O)[C@@H]1OC(C)=O", "note": "(stereo partly drawn) [YW-258, 3-[[5-[[5-[[5-[4-(Methyl 2,3,4-tri-O-acetyl-1-deoxy-b-D-glucuronate)butyramino]-1H-indo 1-2-ylcarbonyl]amino]-1H-indol-2-ylcarbonyl]amino]-1H-indol-2-yl]carbonyl]-1-(chloromethyl)-5-hydroxy-1,2-dihydro-3H-benz[e] indole]", "values": [{"measurement": "IC50", "setting": "[6]; [8]", "value": 0.08, "unit": "nM"}]}
{"smiles": "O=C(CCCO)Nc1ccc2[nH]c(C(=O)Nc3ccc4[nH]c(C(=O)Nc5ccc6[nH]c(C(=O)N7CC(CCl)c8c7cc(O)c7ccccc87)cc6c5)cc4c3)cc2c1", "note": "(stereo not shown) [YW-259]", "values": [{"measurement": "IC50", "setting": "[6]; [8]", "value": 0.09, "unit": "nM"}]}
{"smiles": "Cn1cc(N)cc1C(=O)N1CC(CCl)c2c1cc(O)c1ccccc21", "note": "(stereo not shown) [YW-284, 3-[(4-Amino-1-methylpyrrole-2-yl)carbonyl]-1-(chloromethyl)-5-hydroxy-1,2-dihydro-3H-benz[e]indole]", "values": [{"measurement": "IC50", "setting": "[6]; [8]", "value": 9, "unit": "nM"}]}
{"smiles": "O=C(Cc1cccs1)N[C@@H]1C(=O)N2C(C(=O)O)=C(COC(=O)Nc3ccc4[nH]c(C(=O)N5CC(CCl)c6c5cc(O)c5ccccc65)cc4c3)C[S+]([O-])[C@H]12", "note": "(stereo partly shown) [YW-285]", "values": [{"measurement": "IC50", "setting": "[6]; [8]", "value": 0.9, "unit": "nM"}]}
{"smiles": "Cn1cc(NC(=O)c2cc(NC(=O)c3cc(NC=O)cn3C)cn2C)cc1C(=O)NCCC(=N)N", "note": "[distamycin]", "values": [{"measurement": "therapeutic efficacy", "setting": "[7]", "value": "low therapeutic efficacy"}]}
{"smiles": "Cn1cc(NC(=O)c2cc(NC(=O)CN=C(N)N)cn2C)cc1C(=O)NCCC(=N)N", "note": "[netropsin]", "values": [{"measurement": "therapeutic efficacy", "setting": "[7]", "value": "low therapeutic efficacy"}]}
